The experiment relates to 556581-035-R-J1 tumor spheroid viability, % test/control. The experiment is described as follows: Anticancer human tumor 556581-035-R-J1 patient-derived ovarian carcinoma cell line growth inhibition. The settings on record: spheroids with HUVEC and MSC; for viability, T/C: stronger effect = lower value. From the text:
Multicellular complex tumor spheroid response to DNA repair inhibitors in combination with DNA-damaging drugs
This study explores the anticancer activities of DNA-damaging drugs and inhibitors of DNA damage repair, both as single agents and in combinations. Complex tumor spheroids comprised of malignant cells, endothelial cells and mesenchymal stem cells served as an in vitro model for human solid tumors. This model system incorporates physiologically relevant features and patient-derived or established malignant cell lines with clinically relevant genetic alterations from many tumor types. Twenty-six patient-derived or established malignant cell lines were evaluated representing sarcoma, melanoma, small cell lung cancer (SCLC), non-small cell lung cancer (NSCLC), as well as bladder, ovarian and pancreatic cancers. The concentration ranges selected for each drug and investigational agent were based upon clinically achievable concentrations if the clinical Cmax of the agent was known.
Compounds. The drugs and compounds olaparib (NSC753686), talazoparib (NSC767125), berzosertib (NSC777718), elimusertib (NSC800525), nedisertib (NSC802822), VX-984 (NSC792969), AZD-1390 (NSC803789), temozolomide (NSC362856), topotecan (NSC609699), trabectedin (NSC813783), staurosporine (NSC755774), and gemcitabine (NSC613327) were obtained from the National Cancer Institute (NCI) Developmental Therapeutics Program Chemical Repository. The FDA-approved anticancer drug set is available from the Developmental Therapeutics Program at https://dtp.cancer.gov/organization/dscb/obtaining/available_plates.htm. […] The stock solutions were prepared in dimethyl sulfoxide (DMSO, Sigma-Aldrich, St. Louis, MO, cat. D2650) at 400-fold the tested concentration and stored at -70 degrees C. Prior to their use, the stock solutions were diluted in fresh medium and the final DMSO concentration in the assay was 0.25% (v/v). All drugs and investigational agents were tested over a range starting from a high concentration at or near the clinical Cmax and decreasing in half-log increments. If the clinical Cmax for an agent had not been determined, the highest concentration tested was 10 microM.
Cell Lines. The patient-derived cancer cell (PDC) lines: 156681-154-R-J1-PDC, 283228-195-R-J1-PDC, 287954-098-R-J1-PDC, 292921-168-R-J2-PDC, 349418-098-R-PDC, 425362-245-T-J1-PDC, 556581-035-R-J1-PDC, and BL0293-F563-PDC were received from the NCI Patient-Derived Models Repository (PDMR, https://pdmr.cancer.gov). The established cell lines HS-SY-2 (RRID:CVCL_8719), MPNST, and SYO-1 (RRID:CVCL_7146) were obtained from the Sloan Kettering Institute. The alveolar soft parts sarcoma cell line ASPS-1 (RRID:CVCL_S738) was established at the NCI and grown from internal seed stocks. The following established cell lines were purchased from the American Type Culture Collection (ATCC, Manassas, VA): G-401 (ATCC, cat. CRL-1441, RRID:CVCL_0270), SW982 (ATCC, cat. HTB-93, RRID:CVCL_1734), VA-ES-BJ (ATCC, cat. CRL-2138, RRID:CVCL_1785), NCI-H719 (ATCC, cat. CRL-5837, RRID:CVCL_1582), NCI-H196 (ATCC, cat. CRL-5823, RRID:CVCL_1509), NCI-H841 (ATCC, cat. CRL-5845, RRID:CVCL_1595), NCI-H1618 (ATCC, cat. CRL-5879, RRID:CVCL_1480), NCI-H1876 (ATCC, cat. CRL-5902, RRID:CVCL_1503), DMS 114 (ATCC, cat. CRL-2066; RRID:CVCL_1174), NCI-H211 (ATCC, cat. CRL-5824; RRID:CVCL_1529), and SW 1271 (ATCC, cat. CRL-2177, RRID:CVCL_1716). The small cell lung cancer cell line COR-L88 was purchased from Sigma-Aldrich (cat. 92031917-1VL, RRID:CVCL_1141). The non-small cell lung cancer cell lines NCI-H226 (RRID:CVCL_1544) and NCI-H322M (RRID:CVCL_1557) were established at the NCI and grown from internal seed stocks. Pooled donor human umbilical vein endothelial cells (HUVEC, Lonza, cat. CC-2519) and human mesenchymal stem cells (hMSC, Lonza, cat. PT-2501) were purchased from Lonza (Walkersville, MD).
Cell Culture. All cells were maintained in an incubator at 37 degrees C and 5% CO2 with 95% humidity. […]

The mark [1] stands for this setting: compound alone, run of 10/17/2019.
The mark [2] stands for this setting: compound alone, run of 10/25/2019.

Several values for one entry are separate records, joined by “and”; a condition that tells them apart may be missing. Equal entries are not always repeated.
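Also: spheroids exposed to compounds for 7 days before viability read.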

As usually defined, the viability, T/C is the result in the treated group divided by that in the control group, in per cent. The term IC50 denotes the concentration that gives 50% inhibition. As to `CC(C)n1c(=O)n(C)c2cnc3cc(F)c(-c4ccc(OCCCN5CCCCC5)nc4)cc3c21`, the viability, T/C was 104% and 103% and 102% (compound 0.0316 µM); 109% and 106% and 112% (compound 0.1 µM); 95.9% and 108% and 103% (compound 0.316 µM); 105% and 114% and 101% (compound 1 µM); 100% and 99.6% and 95.5% (compound 3.16 µM); 74.3% and 73.2% and 69% (compound 10 µM). For the same molecule, under “curve of compound”, the IC50 is above 10000 nM.

For the molecule `CC1COCCN1c1cc(-c2ccnn2C)c2ccnc(-c3ccn[nH]3)c2n1` (stereo not given), the viability, T/C is 95.7% and 92.7% and 89.5% (compound 0.0316 µM); 76.3% and 75.8% and 79.5% (compound 0.1 µM); 56.5% and 57.8% and 55.5% (compound 0.316 µM); 45.5% and 44.4% and 41.9% (compound 1 µM); 39.9% and 39% and 33.9% (compound 3.16 µM); 35.6% and 32.5% and 30.2% (compound 10 µM). The half-maximal inhibitory concentration (IC50) (curve of compound) is 636 nM and 647 nM and 521 nM.

Turning to `CC[C@@]1(O)C(=O)OCc2c1cc1n(c2=O)Cc2cc3c(CN(C)C)c(O)ccc3nc2-1`, the viability, T/C runs as follows: (compound 0.003 µM) 101% [middle of 10 runs]; (compound 0.03 µM) 74.6% [middle of 10 runs]; (compound 0.0949 µM) 58.5% [middle of 10 runs]; (compound 0.3 µM) 16.5% [middle of 10 runs]. For the same molecule, the IC50 runs as follows: under setting [1], 121 nM [middle of 4 runs]; under setting [2], 80.7 nM [middle of 5 runs].

With `CNCc1ccc(-c2cc(-c3nc(-c4ccc(S(=O)(=O)C(C)C)cc4)cnc3N)on2)cc1`, the viability, T/C reads like this: (compound 0.00949 µM) 107% and 97.6% and 104%; (compound 0.03 µM) 105% and 95.6% and 111%; (compound 0.0949 µM) 103% and 115% and 108%; (compound 0.3 µM) 106% and 112% and 108%; (compound 0.949 µM) 66.6% and 80.3% and 75.4%; (compound 3 µM) 20.2% and 19.4% and 27.6%. For the setting “curve of compound”, the IC50 is 1430 nM and 1680 nM and 1750 nM.

Regarding `COc1cc(C)[nH]c(=O)c1CN1CCc2c(Cl)cc(C(OC)C3COC3)c(Cl)c2C1=O` (stereo not given), the viability, T/C was 103% and 105% and 98.8% (compound 0.0316 µM); 110% and 101% and 105% (compound 0.1 µM); 107% (2×) and 99.8% (compound 0.316 µM); 111% and 108% and 102% (compound 1 µM); 114% and 107% and 96.9% (compound 3.16 µM); 106% and 99.4% and 98.3% (compound 10 µM). Also, the IC50 (curve of compound) is above 10000 nM.

As for `COc1cc2c(cc1O)CCNC21CSC2c3c(OC(C)=O)c(C)c4c(c3C(COC1=O)N1C(O)C3Cc5cc(C)c(OC)c(O)c5C(C21)N3C)OCO4` (stereo not given), the viability, T/C by setting is: (compound 94.9 pM) 106% [middle of 10 runs]; (compound 0.0003 µM) 95.4% [middle of 10 runs]; (compound 0.000949 µM) 41% [middle of 10 runs]; (compound 0.003 µM) 0.66% [middle of 10 runs]. Further, under setting [2], the IC50 was 0.795 nM [middle of 10 runs].

Consider `COc1ccc([C@@H](O)c2cc(-c3ncnc4cc(N5CCOCC5)ccc34)c(F)cc2Cl)nn1`, for which the viability, T/C runs as follows: (compound 0.0316 µM) 103% and 102% and 98.8%; (compound 0.1 µM) 104% and 111% and 99.6%; (compound 0.316 µM) 81.3% and 90.1% and 91%; (compound 1 µM) 61.1% and 70.3% and 64.7%; (compound 3.16 µM) 40.9% and 49.5% and 41.4%; (compound 10 µM) 31.9% and 35.1% and 31.1%. For the same molecule, where the note is “curve of compound”, the half-inhibitory concentration (IC50) is 1810 nM and 2830 nM and 2020 nM.

On to `Cc1cc(C)c(CNC(=O)c2cc(-c3ccc(CN4CCOCC4)cc3)cc3c2cnn3C2CCCC2)c(=O)[nH]1`, for which the viability, T/C was 103% and 104% and 86.6% (compound 0.0316 µM); 108% and 103% and 97.3% (compound 0.1 µM); 112% and 108% and 97.3% (compound 0.316 µM); 115% and 102% and 120% (compound 1 µM); 104% and 105% and 107% (compound 3.16 µM); 89.3% (2×) and 93.4% (compound 10 µM). Besides, for the setting “curve of compound”, the IC50 is above 10000 nM.

For `Cc1sc2c(c1C)C(c1ccc(Cl)cc1)=NC(CC(=O)Nc1ccc(O)cc1)c1nnc(C)n1-2` (stereo not given), the viability, T/C runs as follows: (compound 0.00949 µM) 102% and 101% and 103%; (compound 0.03 µM) 98.1% and 83.8% and 103%; (compound 0.0949 µM) 82.5% and 90.3% and 88.8%; (compound 0.3 µM) 74.5% and 89.5% and 82.5%; (compound 0.949 µM) 71.8% and 76.6% and 76%; (compound 3 µM) 66.2% and 70.1% and 71.4%. Besides, the IC50 (curve of compound) was above 3000 nM.

For `Cn1ncnc1[C@H]1c2n[nH]c(=O)c3cc(F)cc(c23)N[C@@H]1c1ccc(F)cc1`, the viability, T/C was 110% and 95.9% and 100% (compound 0.00949 µM); 107% and 97.1% and 105% (compound 0.03 µM); 102% and 89.2% and 95.8% (compound 0.0949 µM); 97.6% and 80.2% and 83.6% (compound 0.3 µM); 77.9% and 69.9% and 76% (compound 0.949 µM); 60.8% and 52.1% and 56.5% (compound 3 µM). Further, where the note is “curve of compound”, the IC50 was above 3000 nM.

With `Cn1nnc2c(C(N)=O)ncn2c1=O`, the viability, T/C was 103% [middle of 10 runs] (compound 1 µM), 104% [middle of 10 runs] (compound 10 µM) and 107% [middle of 10 runs] (compound 31.6 µM). Further, the half-maximal inhibitory concentration (IC50) under setting [1] was above 100000 nM.

Take `O=C(c1cc(Cc2n[nH]c(=O)c3ccccc23)ccc1F)N1CCN(C(=O)C2CC2)CC1`: the viability, T/C was 100% and 105% and 95.8% (compound 0.0949 µM); 97.9% and 107% and 110% (compound 0.3 µM); 98.4% and 102% and 100% (compound 0.949 µM); 90% and 103% and 96.5% (compound 3 µM); 75.5% and 90.5% and 81.3% (compound 9.49 µM); 64.7% and 72.9% and 67.7% (compound 30 µM). Where the note is “curve of compound”, the half-inhibitory concentration (IC50) is above 30000 nM.

Take `[2H]c1nc(C)nc([2H])c1-c1cc(NC[C@@H](C)c2cccc3c(C(=O)NC)ccnc23)ncn1`: the viability, T/C by setting is: (compound 0.0316 µM) 112% and 111% and 102%; (compound 0.1 µM) 111% and 107% (2×); (compound 0.316 µM) 108% and 109% and 110%; (compound 1 µM) 113% and 105% and 101%; (compound 3.16 µM) 116% and 106% and 105%; (compound 10 µM) 115% and 111% and 105%. The IC50 (curve of compound) is above 10000 nM.
